Results on 44 compounds are retold here after US11753403B2, “EIF4E inhibitors and uses thereof” (PIC Therapeutics, Inc., priority 2020, dated 2023).

Structures are written as SMILES. pIC50: −log10 of the molar value. Some results are limits rather than exact numbers.

Chain of Human eIF4E (aa 28-217) / biotin labeled 4G2 peptide (P06730 28-217): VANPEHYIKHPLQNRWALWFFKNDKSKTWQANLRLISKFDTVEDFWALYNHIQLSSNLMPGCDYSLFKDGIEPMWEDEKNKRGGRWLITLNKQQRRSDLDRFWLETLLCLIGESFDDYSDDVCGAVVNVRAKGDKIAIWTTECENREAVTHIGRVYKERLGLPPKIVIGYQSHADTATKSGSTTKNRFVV

The assay addresses Human eIF4E (aa 28-217) / biotin labeled 4G2 peptide (Homo sapiens (Human), UniProt P06730). Briefly: Human eIF4E/4G2 binding assay (TR-FRET). The conditions noted are these: Human eIF4E/4G2 TR-FRET binding assay; head says IC50, legend says EC50. Here is the method:
Example 5. Compound Testing in Human eIF4E/4G2 Binding Assay
Human eIF4E (aa 28-217) with a C-terminal His-tag was expressed in E. coli in inclusion bodies. The protein was solubilized with 8 M urea and purified under denaturing conditions using nickel-charged HisTrap HP columns (GE Healthcare). The purified protein was then refolded by diluting in 20 mM Hepes pH 7.0, 0.5 M NaCl, 1 mM DTT, 1 mM EDTA, 0.5 M arginine plus 6 M urea, and then dialyzing overnight into the same buffer without the urea. The protein was further dialyzed into 20 mM Hepes, pH 6.5, 50 mM NaCl, 1 mM EDTA, 1 mM DTT, and concentrated using Hitrap SP sepharose FF columns (GE Healthcare). The concentrated protein was dialyzed into 20 mM Hepes, pH 7.0, 0.5M NaCl, 5 mM DTT and 10% glycerol, and stored at −80° C. until use.
Test compounds (3.43 mM stock in DMSO) were diluted 2-fold in series in DMSO (10 concentration points). Compound solutions (1.2 μl/well) were added into black 384-well polypropylene microplates (Matrix, Thermal Scientific). Twenty-two microliters per well of Assay Buffer (50 mM NaPi, pH 6.5, 50 mM KCl, 1 mM DTT and 0.5 mg/ml gamma globulin) and eight microliters per well of 82.5 nM purified eIF4E in Assay Buffer were added. The samples were incubated at room temperature (20-23° C.) for 4 hours. Biotin labeled 4G2 peptide (Ac-Lys-Gln-Tyr-Asp-Arg-Glu-Phe-Leu-Leu-Asp-Phe-Gln-Phe-Met-Pro-Lys(Aha-Bio)-NH2, 1.75 μM stock in DMSO) was diluted to 0.14 μM in Assay Buffer (without DTT) and 5 μl/well was added. The samples were incubated at room temperature for 20 min. Five microliters per well of 6.4 nM Eu-streptavidin (Eu-SA, Perkin Elmer) and 80 nM Allophycocyanin (APC)-anti His antibody (Columbia Biosciences) in Assay Buffer (without DTT) were then added and the samples were incubated at room temperature for 20 min.
Assay signals were monitored by reading excitation at 340 nm and emission fluorescence at 615 nm and 665 nm on an Envision reader (Perkin Elmer). Normalized TR-FRET (time-resolved fluorescence resonance energy transfer) assay signal (Rn) was calculated by the formula: Rn=[(A−Ba−C×D)/(D−Bd)]×(Dc−Bd) Where A is the fluorescence intensity of the sample at 665 nm, • D is the fluorescence intensity of the sample at 615 nm, • Ba and Bd are plate backgrounds at 665 nm and 615 nm, respectively, • Dc is the fluorescence intensity of 0.78 nM Eu-SA in the assay buffer at 615 nm The cross-talk factor (C) is determined by the following formula: C=(Ac−Ba)/(Dc−Bd) Where Ac is the fluorescence intensity of 0.78 nM Eu-SA in the assay buffer at 665 nm.
IC50 values were calculated using xLFit program (IDBS). Table 2 below lists EC50 of some compounds, wherein A represents EC50≤1 uM; B represents 1 uM<EC50≤10 uM; and C represents EC50>10 uM.
For orientation: Time-resolved FRET reads energy transfer from a long-lived donor to a nearby acceptor.
`CC(C)Cc1sc(Nc2ncc(-c3cccs3)cc2C(=O)O)nc1-c1ccc(OCC2CC2)c(Cl)c1` [I-332] showed a pIC50 of at least 6.00.

For `COc1cccc(-c2nc(NCC(Cc3cccc(O)c3)C(=O)O)sc2C(C)C)c1` (centres unmarked) [I-31], the pIC50 was below 5.00.

The compound `CC(C)c1sc(NCC(CCc2ccccc2)C(=O)O)nc1-c1ccc(Cl)c(Cl)c1` (centres unmarked) [I-6] gave a negative logarithm of the IC50 (pIC50) of at least 6.00.

Take `CC(C)c1sc(Nc2ncc(-c3cccs3)cc2C(=O)O)nc1-c1ccc(Cl)c(C(F)(F)F)c1` [I-263]: the negative-log IC50 (pIC50) was at least 6.00.

On to `CC(=O)NS(=O)(=O)CCN(Cc1ccccc1)c1nc(-c2ccc(Cl)c(Cl)c2)c(CC(C)C)s1` [I-99, N-(2-(benzyl(4-(3,4-dichlorophenyl)-5-isobutylthiazol-2-yl)amino)ethylsulfonyl)acetamide], for which the pIC50 is 5.00 to 6.00.

Compound `COc1ccccc1CC(CNc1nc(-c2ccc(Cl)cc2)c(C(C)C)s1)C(=O)O` (centres unmarked) [I-40] gave a pIC50 of 5.00 to 6.00.

As to `CC(C)Cc1sc(Nc2cc(-c3ccccc3)sc2C(=O)O)nc1-c1ccc(Cl)c(Cl)c1` [I-270], the pIC50 is at least 6.00.

The compound `CC(C)Cc1sc(-c2ccc(-c3cccnc3)c(C(=O)O)c2)nc1-c1ccc(Cl)c(Cl)c1` [I-226] showed a pIC50 of at least 6.00.

For the compound `CC(C)Cc1sc(N(CCC(=O)NCC(=O)O)Cc2ccccc2)nc1-c1ccc(Cl)c(Cl)c1` [I-196], the pIC50 was 5.00 to 6.00.

On to `O=C(O)c1sc(NCC(Cc2ccccc2)C(=O)O)nc1-c1ccc(Cl)c(Cl)c1` (centres unmarked) [I-183, 2-(2-carboxy-3-phenylpropylamino)-4-(3,4-dichlorophenyl)thiazole-5-carboxylic acid], for which the pIC50 was below 5.00.

On to `CC(C)Cc1sc(N(CCC(=O)NCC(N)=O)Cc2ccccc2)nc1-c1ccc(Cl)c(Cl)c1` [I-193], for which the pIC50 is below 5.00.

On to `CSc1sc(NCC(Cc2ccccc2)C(=O)O)nc1-c1ccc(Cl)c(Cl)c1` (centres unmarked) [I-206, 2-benzyl-3-(4-(3,4-dichlorophenyl)-5-(methylthio)thiazol-2-ylamino)propanoic acid], for which the negative logarithm of the IC50 (pIC50) is 5.00 to 6.00.

`CC(C)Cc1sc(N(CCC(=O)O)CC(N)=O)nc1-c1ccc(Cl)c(Cl)c1` [I-64] had a pIC50 of 5.00 to 6.00.

`Cc1cc(CC(CNc2nc(-c3ccc(Cl)c(Cl)c3)c(CC(C)C)s2)C(=O)O)cc(C)n1` (centres unmarked) [I-150] had a pIC50 of 5.00 to 6.00.

With `CC(C)Cc1sc(N(Cc2ccccc2)C(=O)CC(=O)O)nc1-c1ccc(Cl)c(Cl)c1` [I-143, 3-(benzyl(4-(3,4-dichlorophenyl)-5-isobutylthiazol-2-yl)amino)-3-oxopropanoic acid], the negative-log IC50 (pIC50) was below 5.00.

Compound `O=C(O)C(CCc1ccccc1)CNc1nc(-c2ccc(Cl)c(Cl)c2)c(C2CC2)s1` (centres unmarked) [I-15] gave a negative logarithm of the IC50 (pIC50) of 5.00 to 6.00.

For `CC(C)Cc1sc(N(CCC(=O)O)CCC(=O)O)nc1-c1ccc(Cl)c(Cl)c1` [I-58, 3,3′-(4-(3,4-dichlorophenyl)-5-isobutylthiazol-2-ylazanediyl)dipropanoic acid], the negative-log IC50 (pIC50) is below 5.00.

On to `COc1ccc(Nc2nc(-c3ccc(Cl)c(Cl)c3)c(CC(C)C)s2)cc1C(=O)O` [I-210], for which the negative-log IC50 (pIC50) was at least 6.00.

`CC(C)Cc1sc(N(CCC(=O)O)CC2CCCO2)nc1-c1ccc(Cl)c(Cl)c1` (centres unmarked) [I-69]: the pIC50 is 5.00 to 6.00.

`CC(C)Cc1sc(NCC(Cc2ccc(C(N)=O)cc2)C(=O)O)nc1-c1ccc(Cl)c(Cl)c1` (centres unmarked) [I-166, 2-(4-carbamoylbenzyl)-3-(4-(3,4-dichlorophenyl)-5-isobutylthiazol-2-ylamino)propanoic acid] showed a negative-log IC50 (pIC50) of 5.00 to 6.00.

Regarding `CC(C)c1sc(NCC(Cc2cccc(F)c2)C(=O)O)nc1-c1ccc(Cl)cc1` (centres unmarked) [I-42], the negative-log IC50 (pIC50) is 5.00 to 6.00.

`CC(C)Cc1sc(Nc2cc(C(=O)O)ccc2-c2ccccc2)nc1-c1ccc(Cl)c(Cl)c1` [I-255] showed a pIC50 of 5.00 to 6.00.

`CC(C)Cc1sc(N2CCN(C(=O)c3ncccn3)C(C(=O)O)C2)nc1-c1ccc(Cl)c(Cl)c1` (centres unmarked) [I-249] gave a pIC50 of 5.00 to 6.00.

With `CC(C)Cc1sc(N2CCN(C(=O)OCc3ccccc3)C(C(=O)O)C2)nc1-c1ccc(Cl)c(Cl)c1` (centres unmarked) [I-244, 1-(benzyloxycarbonyl)-4-(4-(3,4-dichlorophenyl)-5-isobutylthiazol-2-yl)piperazine-2-carboxylic acid], the negative logarithm of the IC50 (pIC50) was at least 6.00.

In turn, `CC(C)Cc1sc(Nc2ccc(O)c(C(=O)O)c2)nc1-c1ccc(Cl)c(Cl)c1` [I-207, 5-(4-(3,4-dichlorophenyl)-5-isobutylthiazol-2-ylamino)-2-hydroxybenzoic acid] had a pIC50 of 5.00 to 6.00.

In the case of `CC(C)Cc1sc(NCC(Cc2cccc3[nH]ccc23)C(=O)O)nc1-c1ccc(Cl)c(Cl)c1` (centres unmarked) [I-25], the pIC50 was at least 6.00.

Regarding `CC(C)Cc1sc(N(CCC(=N)N)Cc2ccccc2)nc1-c1ccc(Cl)c(Cl)c1` [I-230, 3-(benzyl(4-(3,4-dichlorophenyl)-5-isobutylthiazol-2-yl)amino)propanimidamide], the pIC50 is below 5.00.

In turn, `CC(C)Cc1sc(NCC(Cc2cccc(O)c2)C(=O)O)nc1-c1ccc(Cl)c(Cl)c1` (centres unmarked) [I-21] had a negative-log IC50 (pIC50) of 5.00 to 6.00.

As for `CC(C)Cc1sc(N(CCC(=O)O)Cc2ccccc2)nc1-c1ccc(Cl)cc1` [I-93], the pIC50 is 5.00 to 6.00.

In turn, `CC(C)Cc1sc(NCC(Cc2cccc3cc[nH]c23)C(=O)O)nc1-c1ccc(Cl)c(Cl)c1` (centres unmarked) [I-24] had a pIC50 of 5.00 to 6.00.

In turn, `CC(C)Cc1sc(N2CCN(C(=O)c3cccs3)C(C(=O)O)C2)nc1-c1ccc(Cl)c(Cl)c1` (centres unmarked) [I-248] showed a negative-log IC50 (pIC50) of at least 6.00.

Compound `CC(C)Cc1sc(N2CCN(c3ccccc3)C(C(=O)O)C2)nc1-c1ccc(Cl)c(Cl)c1` (centres unmarked) [I-170] had a pIC50 of 5.00 to 6.00.

Consider `CC(C)Cc1sc(N(CCC(N)=O)CCC(=O)O)nc1-c1ccc(Cl)c(Cl)c1` [I-61], for which the negative-log IC50 (pIC50) was below 5.00.

`CC(C)Cc1sc(N2CCN(C(=O)Nc3ccccc3)C(C(=O)O)C2)nc1-c1ccc(Cl)c(Cl)c1` (centres unmarked) [I-252] had a negative-log IC50 (pIC50) of at least 6.00.

Compound `CC(C)Cc1sc(N(CCc2nnn[nH]2)Cc2ccccc2)nc1-c1ccc(Cl)c(Cl)c1` [I-100] showed a pIC50 of at least 6.00.

`CS(=O)(=O)c1sc(NCC(Cc2ccccc2)C(=O)O)nc1-c1ccc(Cl)c(Cl)c1` (centres unmarked) [I-181, 2-benzyl-3-(4-(3,4-dichlorophenyl)-5-(methylsulfonyl)thiazol-2-ylamino)propanoic acid] showed a pIC50 below 5.00.

`CC(C)Cc1sc(Nc2cc(F)cc(C(=O)O)c2)nc1-c1ccc(Cl)c(Cl)c1` [I-212] showed a negative logarithm of the IC50 (pIC50) of at least 6.00.

On to `CC(C)c1sc(Nc2ncc(-c3ccccc3)cc2C(=O)O)nc1-c1ccc(Cl)c(C(F)(F)F)c1` [I-262, 2-(4-(4-chloro-3-(trifluoromethyl)phenyl)-5-isopropylthiazol-2-ylamino)-5-phenylnicotinic acid], for which the negative logarithm of the IC50 (pIC50) is at least 6.00.

`O=Cc1sc(N(CCC(=O)O)Cc2ccccc2)nc1-c1ccc(Cl)c(Cl)c1` [I-119, 3-(benzyl(4-(3,4-dichlorophenyl)-5-formylthiazol-2-yl)amino)propanoic acid] gave a pIC50 of 5.00 to 6.00.

`CC(C)Cc1sc(N(CCC(=O)NS(C)(=O)=O)Cc2ccccc2)nc1-c1ccc(Cl)c(Cl)c1` [I-97, 3-(benzyl(4-(3,4-dichlorophenyl)-5-isobutylthiazol-2-yl)amino)-N-(methylsulfonyl)propanamide]: the negative logarithm of the IC50 (pIC50) is 5.00 to 6.00.

Compound `CC(C)Cc1sc(N(CCC(=O)N2CCNCC2)Cc2ccccc2)nc1-c1ccc(Cl)c(Cl)c1` [I-134] showed a negative-log IC50 (pIC50) of 5.00 to 6.00.

Regarding `CC(C)Cc1sc(N(CCS(=O)(=O)NC(=O)CN)Cc2ccccc2)nc1-c1ccc(Cl)c(Cl)c1` [I-187, 2-amino-N-(2-(benzyl(4-(3,4-dichlorophenyl)-5-isobutylthiazol-2-yl)amino)ethylsulfonyl)acetamide], the pIC50 is below 5.00.

Consider `CC(C)Cc1sc(NCC(Cc2cccc(C(=O)N(C)C)c2)C(=O)O)nc1-c1ccc(Cl)c(Cl)c1` (centres unmarked) [I-168, 3-(4-(3,4-dichlorophenyl)-5-isobutylthiazol-2-ylamino)-2-(3-(dimethylcarbamoyl)benzyl)propanoic acid], for which the negative logarithm of the IC50 (pIC50) is 5.00 to 6.00.

On to `O=C(O)C(CNc1nc(-c2ccc(Cl)c(Cl)c2)c(C2CC2)s1)Cc1cccc(O)c1` (centres unmarked) [I-13], for which the negative logarithm of the IC50 (pIC50) was 5.00 to 6.00.

In general, pIC50 refers to the IC50 on a negative log10 scale, so that one unit is a factor of ten. Low values mean a large IC50, high ones a small IC50.
